# System: antisera raised by presenting a suitable bupropion variant-carrier material conjugate
# Assay: Competition of bupropion with radiolabeled bupropion or competitor for binding to antisera
# Method: Samples of six standard solutions of bupropion in blank plasma having concentrations of 0.39 to 50 ng/ml) are pipetted (0.1 ml each) in duplicate into 12×75 mm plastic tubes. Duplicate non-specific binding (no antibody) and maximum binding tubes (no unlabeled bupropion) receive 0.1 ml blank plasma. Spiked plasma controls at several concentrations of (e.g., 1.0, 10.0, and 100 ng/ml) and plasma samples for assay (diluted into the standard range with blank plasma if necessary) are assayed in duplicate. After being placed in an ice bath, all tubes receive (in order) 0.2 ml ^3 H bupropion (416 pg. containing approximately 10^4 cpm) and 0.7 ml anti-bupropion serum (raised to a ring-functionalized immunogen according to the present invention) (at pre-determined dilutions such that approximately 40% of the ^3 H bupropion added is bound), both in assay buffer (0.05 M phosphate-bufferedisotonic saline, containing 0.01 M EDTA and 0.1% gelatin, pH 7.0). […] The supernatants, containing antibody-bound ^3 H bupropion are carefully decanted into liquid scintillation cocktail for quantitation of ^3 H. After counts (minus average non-specific binding cpm) are expressed as percentages of average maximum binding cpm, bupropion concentrations in plasma samples and spiked controls are read from a standard curve (log concentration vs percent average maximum binding).
structure (smiles),measurement,value
"CC(NC(C)(C)C)C(=O)c1cccc(Cl)c1 (racemic) [bupropion, (±)-2-tert-butylamino-3'-chloropropiophenone]",competition with radiolabeled bupropion or radiolabeled competitor for binding to antisera,successfully compete

# Reference: US4356165A, “Bupropion radioimmunoassay, and kit” (Burroughs Wellcome Co., priority 1980, dated 1982)
